Assay results: ChEMBL document CHEMBL5316378, “DNA-Encoded Macrocyclic Peptide Libraries Enable the Discovery of a Neutral MDM2-p53 Inhibitor” (ACS Med Chem Lett, 2023)

How the values were obtained:
[1] = biological target: Tumour suppressor p53/oncoprotein Mdm2 (Homo sapiens, UniProt Q00987); test: Inhibition of human MDM2 to p53 (unknown origin) protein protein interaction; format: protein assay
[2] = biological target: T1, E3 ubiquitin-protein ligase Mdm2 (Homo sapiens, UniProt Q00987); test: Inhibition of human MDM2 incubated for 1 hrs by TR-FRET assay
T1 sequence (Q00987 whole entry): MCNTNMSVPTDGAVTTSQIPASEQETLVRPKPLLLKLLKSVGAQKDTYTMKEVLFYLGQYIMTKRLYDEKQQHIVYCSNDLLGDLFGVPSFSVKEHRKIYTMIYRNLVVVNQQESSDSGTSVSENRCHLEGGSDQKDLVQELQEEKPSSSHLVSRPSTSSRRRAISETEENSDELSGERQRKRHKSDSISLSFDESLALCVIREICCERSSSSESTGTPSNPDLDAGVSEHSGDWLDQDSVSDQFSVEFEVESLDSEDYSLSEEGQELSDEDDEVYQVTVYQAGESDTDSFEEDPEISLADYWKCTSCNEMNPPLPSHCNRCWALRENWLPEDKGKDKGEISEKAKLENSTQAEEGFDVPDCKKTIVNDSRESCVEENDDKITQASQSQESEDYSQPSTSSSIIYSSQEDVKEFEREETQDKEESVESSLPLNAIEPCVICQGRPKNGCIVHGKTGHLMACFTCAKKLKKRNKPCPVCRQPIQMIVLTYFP

RS4-11 = test: Anticancer activity against human RS4-11 cells assessed as cell viability incubated for 3 days by CellTiterGlo assay; format: functional, cell-based; conditions: RS4-11, 72 h
Protein Mdm4 = biological target: T2, Protein Mdm4 (Homo sapiens, UniProt O15151); test: Inhibition of human MDM4 (1 to 116 residues) incubated for 1 hrs by fluorescence polarization assay
T2 sequence (O15151 whole entry): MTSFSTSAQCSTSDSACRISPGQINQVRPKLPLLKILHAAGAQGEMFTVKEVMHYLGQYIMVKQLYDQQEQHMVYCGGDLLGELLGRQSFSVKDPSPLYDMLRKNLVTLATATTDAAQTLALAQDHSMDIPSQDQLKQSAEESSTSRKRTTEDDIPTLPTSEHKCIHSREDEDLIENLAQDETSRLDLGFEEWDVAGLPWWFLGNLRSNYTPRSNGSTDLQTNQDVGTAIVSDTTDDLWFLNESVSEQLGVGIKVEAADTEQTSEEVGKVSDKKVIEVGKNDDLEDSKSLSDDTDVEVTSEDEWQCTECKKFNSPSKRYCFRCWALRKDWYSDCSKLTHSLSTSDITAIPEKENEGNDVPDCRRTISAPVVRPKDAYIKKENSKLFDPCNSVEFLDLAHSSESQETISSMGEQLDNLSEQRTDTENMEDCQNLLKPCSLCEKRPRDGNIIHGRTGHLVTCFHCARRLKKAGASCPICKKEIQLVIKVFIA

[3] = biological target: T1, E3 ubiquitin-protein ligase Mdm2; test: Displacement of FAM labeled p53 fragment from human MDM2 (1 to 116 residues) incubated for 1 hrs by fluorescence polarization assay
[4] = Displacement of FAM labeled PMI from human MDM2 (1 to 114 residues) by fluorescence polarization assay

Chain of Tumour suppressor p53/oncoprotein Mdm2 (P04637 whole entry): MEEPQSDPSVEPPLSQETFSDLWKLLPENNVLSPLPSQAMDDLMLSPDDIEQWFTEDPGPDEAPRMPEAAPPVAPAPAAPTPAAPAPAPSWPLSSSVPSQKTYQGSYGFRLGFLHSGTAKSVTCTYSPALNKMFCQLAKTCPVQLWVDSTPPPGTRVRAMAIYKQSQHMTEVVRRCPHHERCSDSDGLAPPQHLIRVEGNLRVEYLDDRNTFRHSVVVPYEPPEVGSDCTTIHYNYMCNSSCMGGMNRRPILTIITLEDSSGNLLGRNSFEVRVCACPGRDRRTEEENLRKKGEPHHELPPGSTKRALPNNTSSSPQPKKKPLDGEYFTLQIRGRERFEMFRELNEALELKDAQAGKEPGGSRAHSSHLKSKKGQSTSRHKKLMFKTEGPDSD
Chain of Tumour suppressor p53/oncoprotein Mdm2 (Q00987 whole entry): as the sequence (Q00987 whole entry) above

Structure (SMILES)	IC50 [1]	IC50 [2]	IC50 (RS4-11)	IC50 (Protein Mdm4)	IC50 [3]	IC50 [4]
CC(C)[C@@H]1NC(=O)Cn2cc(nn2)C[C@H](C(N)=O)NC(=O)[C@@H]2C[C@@H](CN2C(=O)c2ccccc2)NC(=O)[C@H](Cc2cccc(C(F)(F)F)c2)NC(=O)[C@@H](C(C)C)CNC(=O)CNC(=O)[C@H](Cc2ccccc2)NC(=O)[C@H](Cc2c[nH]c3ccccc23)NC1=O	0.0089 µM	0.009 µM	> 50 µM	0.009 µM		
CC(C)[C@@H]1NC(=O)Cn2cc(nn2)C[C@@H](C(N)=O)NC(=O)[C@@H]2C[C@@H](CN2C(=O)c2ccccc2)NC(=O)[C@H](Cc2cccc(C(F)(F)F)c2)NC(=O)[C@@H](C(C)C)CNC(=O)CNC(=O)[C@H](Cc2ccccc2)NC(=O)[C@H](Cc2c[nH]c3ccccc23)NC1=O		0.043 µM	> 50 µM	0.043 µM		
CC(C)[C@@H]1NC(=O)Cn2cc(nn2)CC(C(N)=O)NC(=O)[C@@H]2C[C@@H](CN2C(=O)c2ccccc2)NC(=O)[C@H](Cc2cccc(C(F)(F)F)c2)NC(=O)[C@@H](C(C)C)CNC(=O)CNC(=O)[C@H](Cc2ccccc2)NC(=O)[C@H](Cc2c[nH]c3ccccc23)NC1=O (stereo partly specified)					0.09 µM	2 µM
CC[C@H](C)[C@@H]1NC(=O)[C@H](C(C)C)NC(=O)Cn2cc(nn2)CC(C(N)=O)NC(=O)[C@@H](Cc2ccsc2)NC(=O)[C@H](Cc2ccc(Cl)cc2)NC(=O)C[C@@H](C(=O)O)NC(=O)[C@H](CCSC)NC(=O)[C@H](CC(=O)O)NC1=O (stereo partly specified)					8.1 µM	16.9 µM
